Data on six compounds can be found in US4703048A, “Novel 1-benzhydryl-4-cinnamylpiperazine derivatives, and pharmaceutical compositions comprising said compounds as active ingredient for treating a cerebrovascular disease” (Kanebo Ltd., priority 1985, dated 1987).

Counter-ions that a name gives are not always drawn.

Series [1] has as its system vertebral blood flow. The series can be described thus: Activity of increasing cerebral blood flow (vertebral blood flow), intravenous administration in anesthetized dogs. Format: in vivo. The note with it: 0.3 mg/kg, injected into femoral vein, anesthetized mongrel dogs. As for the experimental part: The activity of increasing cerebral blood flow was measured by using the amount of vertebral blood flow as an index. Mongrel dogs of either sex (body weight 11 to 14 kg; four per group) were anesthetized with sodium pentobarbital (30 mg/kg, by intravenous injection), and the right vertebral artery was isolated from the surrounding tissues. A flow probe was attached to it and led to an electromagnetic flow meter (MFV-2100 made by Nihon Kohden Co., Ltd.). The amount of blood flow was periodically measured [see Meth and Find Exptl Clin Pharmacol, 3 (6), 397 (1981)]. Each of the test compounds was dissolved in a 2% tartaric acid solution containing 20% dimethylacetamide, and injected into the right femoral vein.
Furthermore, each of the test compounds was administered in a dose of 0.3 mg/kg, and increases (%) in vertebral blood flow were determined 1, 5, 10 and 20 minutes after the administration.

Series [2] can be described thus: in vivo. As to conditions: mouse, oral, ddY-strain male mice, fasted 24 hours, deaths during seven days, Weil method, read-out: Acute toxicity LD50. As for the experimental part:
ddY-strain male mice (body weight 18 to 22 g; five per group) were caused to fast 24 hours. Then, each of the test compounds was administered orally, and acute toxicity values (LD50) were determined.
Each of the compounds was dissolved or suspended in a 2% tartaric acid solution containing 20% of dimethylacetamide, and orally administered to the animals. From the number of animals which died during seven days, the LD50 values were calculated by using the Weil method.

The subject of series [3] is vertebral blood flow. Briefly: Activity of increasing cerebral blood flow (vertebral blood flow), intravenous administration in anesthetized dogs. The format is in vivo. The note with it: Canis lupus familiaris; 0.03 to 0.3 mg/kg intravenous, anesthetized mongrel dogs; calculated from the regression line; read-out: VBF-ED50 (dose which increased the cerebral blood flow by 50%).

For series [4], the system named is vertebral blood flow. Briefly: Activity to increase cerebral blood flow (vertebral blood flow), intraduodenal administration in dogs. Format: in vivo. The note with it: 1 mg/kg intraduodenal, mongrel dogs. Here is the method: The activity of compound A of the invention to increase cerebral blood flow was examined by intraduodenal administration.
Compound A was dissolved in a 2% tartaric acid solution containing 20% dimethylacetamide, and administered intraduodenally to mongrel dogs of either sex (body weight 11-18 kg, five per group) in a dose of 1 mg/kg.
At 10, 30, 60, 120, 180 and 240 minutes after the administration, the increase (%) of vertebral blood flow was measured in the same way as in Test Example 1.

Setting [5] is: 10 minutes after administration.
[6] abbreviates: 20 minutes after administration.

As a reminder, the LD50 is the dose at which mortality reaches 50%. As usually defined, the ED50 is the midpoint of the dose-response relation. With `COc1ccc(C=CCN2CCN(C(c3ccccc3)c3ccccc3)CC2)c(OC)c1OC.Cl.Cl` [B, 1-Benzhydryl-4-(2,3,4-trimethoxycinnamyl) piperazine dihydrochloride], the “Increase (%) in vertebral blood flow (mean ± standard error)” value in series [1] (1 minute after administration) is 76 ± 14%; in series [1] (5 minutes after administration) it was 58 ± 12%; in series [1] (setting [5]) it was 41 ± 7%; in series [1] (setting [6]) it was 26 ± 4%. In addition, the LD50 at 168 h in series [2] was 841 mg/kg. Moreover, the ED50 in series [3] was 0.12 mg/kg.
On to `COc1ccc(C=CCN2CCN(C(c3ccc(F)cc3)c3ccc(F)cc3)CC2)c(OC)c1.O=C(O)/C=C/C(=O)O` [C, 1-[Bis(4-fluorophenyl)methyl]-4-(2,4-dimethoxycinnamyl)piperazine fumarate], for which the “Increase (%) in vertebral blood flow (mean ± standard error)” value in series [1] (1 minute after administration) was determined as 83 ± 12%; in series [1] (5 minutes after administration) it was 92 ± 10%; in series [1] (setting [5]), 71 ± 7%; in series [1] (setting [6]), 50 ± 7%. Further, the LD50 at 168 h in series [2] stood at 102 mg/kg. In addition, the ED50 in series [3] was 0.08 mg/kg.
In the case of `C(=Cc1ccccc1)CN1CCN(C(c2ccccc2)c2ccccc2)CC1` [Cinnarizine, reference compound], the “Increase (%) in vertebral blood flow (mean ± standard error)” value was determined as 40 ± 10% in series [1] (1 minute after administration), 5 ± 4% in series [1] (5 minutes after administration), 2 ± 2% in series [1] (setting [5]) and 2 ± 4% in series [1] (setting [6]).
As for `COc1ccc(C=CCN2CCN(C(c3ccc(F)cc3)c3ccc(F)cc3)CC2)c(OC)c1OC.Cl.Cl` [Compound A, 1-[Bis(4-fluorophenyl)methyl]-4-(2,3,4-trimethoxycinnamyl)piperazine dihydrochloride], the “Increase (%) in vertebral blood flow (mean ± standard error)” value in series [1] (1 minute after administration) is 107 ± 17%; in series [1] (5 minutes after administration) it was 137 ± 39%; in series [1] (setting [5]) it was 134 ± 40%; in series [1] (setting [6]), 120 ± 38%. Besides, in series [2], the LD50 at 168 h stood at 185 mg/kg. Further, the “Increase (%) of vertebral blood flow (mean ± standard error)” value is recorded as 6.2 ± 1.8% in series [4] (setting [5]); 51.0 ± 18.6% in series [4] (30 minutes after administration); 149.3 ± 48.0% in series [4] (60 minutes after administration); 150.9 ± 38.2% in series [4] (120 minutes after administration); 98.8 ± 24.2% in series [4] (180 minutes after administration); 55.1 ± 17.2% in series [4] (240 minutes after administration). Besides, in series [3], the ED50 was 0.06 mg/kg.
As for `COc1ccc(C=CCN2CCN(C(c3ccccc3)c3ccccc3)CC2)c(OC)c1.O=C(O)/C=C/C(=O)O` [D, 1-Benzhydryl-4-(2,4-dimethoxycinnamyl) piperazine fumarate], the “Increase (%) in vertebral blood flow (mean ± standard error)” value in series [1] (1 minute after administration) is listed as 66 ± 11%; in series [1] (5 minutes after administration), 51 ± 10%; in series [1] (setting [5]) it was 27 ± 7%; in series [1] (setting [6]), 18 ± 6%. In series [2], the LD50 at 168 h came out at 773 mg/kg. Further, in series [3], the ED50 was 0.18 mg/kg.
Take `Fc1ccc(C(c2ccc(F)cc2)N2CCN(CC=Cc3ccccc3)CC2)cc1` [Flunarizine dihydrochloride, reference compound]: the “Increase (%) in vertebral blood flow (mean ± standard error)” value in series [1] (1 minute after administration) is 53 ± 20%; in series [1] (5 minutes after administration), 20 ± 12%; in series [1] (setting [5]), 11 ± 7%; in series [1] (setting [6]), 10 ± 6%. The ED50 in series [3] was > 0.3 mg/kg.
